For this assay, the target named is T1, Est_p6 (uncultured bacterium, UniProt D7NJ22).
T1 construct: predicted signal peptide (residues 1-26) removed, from residue 27 of 357; C-terminal 6xHis tag kept (pET-28a, NcoI/HindIII); E. coli BL21(DE3); Ni-NTA; 36 kDa by SDS-PAGE
T1 sequence (D7NJ22 27-357 limits assumed): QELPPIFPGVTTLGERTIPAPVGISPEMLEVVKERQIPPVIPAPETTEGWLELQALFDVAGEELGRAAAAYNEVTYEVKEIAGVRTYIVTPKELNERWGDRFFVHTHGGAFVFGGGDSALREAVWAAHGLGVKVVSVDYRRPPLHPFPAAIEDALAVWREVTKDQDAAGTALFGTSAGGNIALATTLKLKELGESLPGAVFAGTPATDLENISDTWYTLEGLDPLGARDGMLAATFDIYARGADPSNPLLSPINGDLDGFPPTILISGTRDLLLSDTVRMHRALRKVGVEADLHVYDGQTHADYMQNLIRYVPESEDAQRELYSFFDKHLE
The assay can be described thus: spectrophotometric pNP release at […] nm, Lineweaver-Burk. Format: biochemical. The note with it: 50 mM Tris-HCl pH 8.60, 50°C, 4% ethanol.
The Km is the concentration of substrate that gives half-maximal velocity. For the compound `CC(=O)Oc1ccc([N+](=O)[O-])cc1` [C2, pNP acetate], the Km worked out at 2.64 mM.
Regarding `CCCC(=O)Oc1ccc([N+](=O)[O-])cc1` [C4, pNP butyrate], the Km was found to be 1.15 mM.
To `CCCCCCCC(=O)Oc1ccc([N+](=O)[O-])cc1` [C8, pNP caprylate] belongs 0.322 mM.
The result for `CCCCCCCCCC(=O)Oc1ccc([N+](=O)[O-])cc1` [C10, pNP caprate] reads 1.28 mM; that for `CCCCCCCCCCCC(=O)Oc1ccc([N+](=O)[O-])cc1` [C12, pNP laurate], 0.149 mM.

The values above are taken from article PMC3880967, “Isolation of a novel alkaline-stable lipase from a metagenomic library and its specific application for milkfat flavor production” (Microbial Cell Factories, 2014).
